Reference: patent US6720345B1, “Semicarbazone derivatives and their use as thrombopoietin mimetics” (SmithKline Beecham Corporation, priority 1999, dated 2004)

Target: T1, TPO receptor (Homo sapiens, UniProt P40238)
T1 construct: expressed in transfected cells; host or cells: murine BaF3 cells (TPO-responsive line)
T1 sequence (P40238 26-635): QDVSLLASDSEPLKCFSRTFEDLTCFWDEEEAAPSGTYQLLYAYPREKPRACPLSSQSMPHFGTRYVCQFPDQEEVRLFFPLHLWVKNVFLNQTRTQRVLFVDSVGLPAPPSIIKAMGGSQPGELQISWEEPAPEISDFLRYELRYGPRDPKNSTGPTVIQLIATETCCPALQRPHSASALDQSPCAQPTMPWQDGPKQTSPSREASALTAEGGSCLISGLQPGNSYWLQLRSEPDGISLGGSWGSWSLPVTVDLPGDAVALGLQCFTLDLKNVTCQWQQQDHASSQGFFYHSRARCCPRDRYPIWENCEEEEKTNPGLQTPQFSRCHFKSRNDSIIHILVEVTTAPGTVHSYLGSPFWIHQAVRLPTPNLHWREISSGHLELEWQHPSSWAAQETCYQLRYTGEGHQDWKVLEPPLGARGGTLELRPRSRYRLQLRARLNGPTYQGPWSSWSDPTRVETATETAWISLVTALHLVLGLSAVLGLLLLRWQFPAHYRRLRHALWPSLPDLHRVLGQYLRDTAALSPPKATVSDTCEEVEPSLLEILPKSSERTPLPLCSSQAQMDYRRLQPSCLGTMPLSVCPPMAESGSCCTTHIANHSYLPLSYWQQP
Assay: Luciferase assay in TPO-responsive BaF3 cell line
Assay type: cell-based, murine
Conditions: at a concentration of 10 uM
Protocol: Compounds of the present invention were tested for potency as mimetics of the TPO receptor in a Luciferase assay such as described in Lamb, et al., Nucleic Acids Research 23: 3283-3289 (1995) and Seidel, et al., Proc. Natl. Acad. Sci., USA 92: 3041-3045 (1995) by substituting a TPO-responsive BaF3 cell line (Vigon et al. Proc. Natl. Acad. Sci. USA 1992, 89, 5640-5644) for the HepG2 cells utilized therein. The murine BaF3 cells express TPO receptors and closely match the pattern of STAT (signal transducers and activators of transcription) activation observed in primary murine and human bone marrow cells in response to TPO.

activation, % of control (control is the maximal response to TPO): about 9 % of control
SMILES: O=C1CSC(=S)N1N=Cc1cc(Br)cc(Br)c1O [Compound A, 3-[(2-hydroxy-3,5-dibromophen-1-yl)methyleneamino]-2-thioxothiazolidin-4-one]
